Structures can show the parent of a compound that is named as a salt. Where two headings read alike, the source gives them in different places.

The test system of one test is Adrenergic α1A. The test is described as follows: competitive radioligand binding, Adrenergic α1A. To be noted: compound concentration of 1 μM. Here is the method: (§1) Profiles of pharmacological activity of thieno-pyrrolo[3,2-c]pyridines of the general formula 1. Biological activity test of compounds of the general formula 1 was carried out in the setting of competitive radioligand binding [I. Okun, S. Tkachenko, A. Khvat, et al., Current Alzheimer Research, 7(2), 97-112 (2010)], using a wide range of therapeutic targets including G-protein coupled receptors (GPCR), ion channels and neuromediator transporters. The tested activity was determined by quantitative measurement of radio-labelled ligand displacement by tested compounds of the general formula 1 at their concentration of 1 μM.

Another test concerns the target T1, Adrenergic α2A (Homo sapiens, UniProt P08913).
T1 sequence (P08913 1-465): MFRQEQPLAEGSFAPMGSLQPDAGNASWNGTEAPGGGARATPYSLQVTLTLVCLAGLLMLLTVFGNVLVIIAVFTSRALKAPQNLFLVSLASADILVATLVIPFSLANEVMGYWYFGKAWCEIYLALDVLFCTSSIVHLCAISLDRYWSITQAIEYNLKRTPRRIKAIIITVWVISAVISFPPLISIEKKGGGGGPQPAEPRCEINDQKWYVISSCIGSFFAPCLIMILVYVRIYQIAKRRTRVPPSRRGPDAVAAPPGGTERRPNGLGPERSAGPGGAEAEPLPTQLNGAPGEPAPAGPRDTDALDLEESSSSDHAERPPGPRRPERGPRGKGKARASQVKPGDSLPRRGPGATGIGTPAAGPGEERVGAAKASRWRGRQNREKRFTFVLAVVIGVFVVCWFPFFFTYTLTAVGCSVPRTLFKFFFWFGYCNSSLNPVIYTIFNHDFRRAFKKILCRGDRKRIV
The test is described as follows: competitive radioligand binding, Adrenergic α2A. To be noted: read-out: radio-labelled ligand displacement, Adrenergic α2A. Here is the method: as §1

The next test concerns the target Dopaminergic D2L (Homo sapiens, UniProt P14416). Kind of test: competitive radioligand binding, Dopaminergic D2L. To be noted: compound concentration of 1 μM; read-out: radio-labelled ligand displacement, Dopaminergic D2L. Here is the method: as §1
A further test concerns the target Dopaminergic D2S (Homo sapiens, UniProt P14416). The test is described as follows: competitive radioligand binding, Dopaminergic D2S. The following applies: compound concentration of 1 μM; read-out: radio-labelled ligand displacement, Dopaminergic D2S. Here is the method:
as §1

The target of a further test is Dopaminergic D3 (Homo sapiens, UniProt P35462). The test is described as follows: competitive radioligand binding, Dopaminergic D3. The following applies: compound concentration of 1 μM; read-out: radio-labelled ligand displacement, Dopaminergic D3. Here is the method: as §1
Dopaminergic D3, sequence (P35462 whole entry): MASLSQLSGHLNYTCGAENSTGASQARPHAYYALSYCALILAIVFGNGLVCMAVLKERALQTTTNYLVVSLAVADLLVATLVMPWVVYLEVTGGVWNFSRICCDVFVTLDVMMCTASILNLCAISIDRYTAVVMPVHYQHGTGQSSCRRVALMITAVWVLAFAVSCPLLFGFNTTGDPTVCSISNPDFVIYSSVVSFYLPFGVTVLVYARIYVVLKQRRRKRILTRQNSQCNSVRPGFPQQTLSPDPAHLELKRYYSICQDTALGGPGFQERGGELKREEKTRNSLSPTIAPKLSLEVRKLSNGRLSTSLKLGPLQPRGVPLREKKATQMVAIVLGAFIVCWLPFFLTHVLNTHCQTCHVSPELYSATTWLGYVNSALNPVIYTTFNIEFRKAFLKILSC
The target of the next test is T2, Dopaminergic D4.2 (Homo sapiens, UniProt P21917, DEL265-296).
T2 sequence (P21917 with tags, fused parts or gaps DEL265-296): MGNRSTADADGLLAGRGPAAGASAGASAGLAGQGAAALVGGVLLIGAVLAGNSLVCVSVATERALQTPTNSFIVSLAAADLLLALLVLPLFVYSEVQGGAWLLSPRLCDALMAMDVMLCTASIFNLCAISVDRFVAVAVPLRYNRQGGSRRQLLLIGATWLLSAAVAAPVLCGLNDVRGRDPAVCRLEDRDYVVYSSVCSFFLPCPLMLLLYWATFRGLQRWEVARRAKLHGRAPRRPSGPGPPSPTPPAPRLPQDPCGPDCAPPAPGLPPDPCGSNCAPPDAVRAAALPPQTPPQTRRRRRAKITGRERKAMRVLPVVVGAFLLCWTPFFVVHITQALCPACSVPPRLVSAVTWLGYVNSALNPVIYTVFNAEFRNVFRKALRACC
The test is described as follows: competitive radioligand binding, Dopaminergic D4.2. The following applies: compound concentration of 1 μM; read-out: radio-labelled ligand displacement, Dopaminergic D4.2. Here is the method: as §1

A further test deals with Histaminergic H1 (Homo sapiens, UniProt P35367). The test is described as follows: competitive radioligand binding, Histaminergic H1. The following applies: compound concentration of 1 μM; read-out: radio-labelled ligand displacement, Histaminergic H1. Here is the method: as §1
Histaminergic H1, sequence (P35367 whole entry): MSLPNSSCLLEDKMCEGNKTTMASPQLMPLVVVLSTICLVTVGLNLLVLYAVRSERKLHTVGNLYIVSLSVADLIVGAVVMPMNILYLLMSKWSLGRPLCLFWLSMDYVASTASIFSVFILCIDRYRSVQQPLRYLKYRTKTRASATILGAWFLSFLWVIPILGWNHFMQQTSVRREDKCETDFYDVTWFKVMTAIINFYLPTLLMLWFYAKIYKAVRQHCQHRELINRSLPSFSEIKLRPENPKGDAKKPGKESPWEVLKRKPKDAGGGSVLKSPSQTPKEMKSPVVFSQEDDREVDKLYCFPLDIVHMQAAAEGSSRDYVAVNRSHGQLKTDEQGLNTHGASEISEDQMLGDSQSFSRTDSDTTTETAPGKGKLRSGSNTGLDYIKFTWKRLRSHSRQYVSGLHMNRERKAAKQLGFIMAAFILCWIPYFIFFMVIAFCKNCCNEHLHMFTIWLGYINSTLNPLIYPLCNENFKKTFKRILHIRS
A further test deals with Histaminergic H2 (Homo sapiens, UniProt P25021). Kind of test: competitive radioligand binding, Histaminergic H2. The following applies: compound concentration of 1 μM; read-out: radio-labelled ligand displacement, Histaminergic H2. Here is the method:
as §1

The next test concerns the target T3, Serotoninergic 5-HT1A (Homo sapiens, UniProt P08908).
T3 sequence (P08908 1-422): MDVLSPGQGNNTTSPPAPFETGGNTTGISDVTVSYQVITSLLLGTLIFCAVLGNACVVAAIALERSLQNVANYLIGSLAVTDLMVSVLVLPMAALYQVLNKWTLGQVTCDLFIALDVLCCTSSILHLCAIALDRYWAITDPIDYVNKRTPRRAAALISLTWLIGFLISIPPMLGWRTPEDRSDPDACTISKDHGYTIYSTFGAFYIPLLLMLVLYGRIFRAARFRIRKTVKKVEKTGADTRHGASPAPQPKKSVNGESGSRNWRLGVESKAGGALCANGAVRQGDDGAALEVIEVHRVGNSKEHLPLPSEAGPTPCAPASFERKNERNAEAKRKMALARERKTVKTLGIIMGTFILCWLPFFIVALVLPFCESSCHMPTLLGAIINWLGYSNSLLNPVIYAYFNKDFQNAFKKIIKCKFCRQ
Kind of test: competitive radioligand binding, Serotoninergic 5-HT1A. The following applies: compound concentration of 1 μM; read-out: radio-labelled ligand displacement, Serotoninergic 5-HT1A. Here is the method: as §1

The subject of another test is Serotoninergic 5-HT1B. Kind of test: competitive radioligand binding, Serotoninergic 5-HT1B. The following applies: compound concentration of 1 μM. Here is the method: as §1
For the next test, the target named is Serotoninergic 5-HT2A (Homo sapiens, UniProt P28223). The test is described as follows: competitive radioligand binding, Serotoninergic 5-HT2A. The following applies: read-out: radio-labelled ligand displacement, Serotoninergic 5-HT2A. Here is the method: as §1
Serotoninergic 5-HT2A, sequence (P28223 whole entry): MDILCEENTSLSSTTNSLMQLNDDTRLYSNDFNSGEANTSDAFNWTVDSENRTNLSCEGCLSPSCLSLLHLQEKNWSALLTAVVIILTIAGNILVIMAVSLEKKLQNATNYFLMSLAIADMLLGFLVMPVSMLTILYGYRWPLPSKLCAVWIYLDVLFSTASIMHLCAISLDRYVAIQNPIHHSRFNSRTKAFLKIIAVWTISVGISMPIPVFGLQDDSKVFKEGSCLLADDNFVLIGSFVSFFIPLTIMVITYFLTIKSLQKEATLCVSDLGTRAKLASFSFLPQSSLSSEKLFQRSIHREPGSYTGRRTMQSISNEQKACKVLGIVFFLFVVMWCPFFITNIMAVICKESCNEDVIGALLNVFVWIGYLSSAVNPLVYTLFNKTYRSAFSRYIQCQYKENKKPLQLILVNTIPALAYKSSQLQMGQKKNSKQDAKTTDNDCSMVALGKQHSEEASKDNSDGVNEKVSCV
The target of the next test is T4, Serotoninergic 5-HT2C (Homo sapiens, UniProt P28335).
T4 sequence (P28335 33-458): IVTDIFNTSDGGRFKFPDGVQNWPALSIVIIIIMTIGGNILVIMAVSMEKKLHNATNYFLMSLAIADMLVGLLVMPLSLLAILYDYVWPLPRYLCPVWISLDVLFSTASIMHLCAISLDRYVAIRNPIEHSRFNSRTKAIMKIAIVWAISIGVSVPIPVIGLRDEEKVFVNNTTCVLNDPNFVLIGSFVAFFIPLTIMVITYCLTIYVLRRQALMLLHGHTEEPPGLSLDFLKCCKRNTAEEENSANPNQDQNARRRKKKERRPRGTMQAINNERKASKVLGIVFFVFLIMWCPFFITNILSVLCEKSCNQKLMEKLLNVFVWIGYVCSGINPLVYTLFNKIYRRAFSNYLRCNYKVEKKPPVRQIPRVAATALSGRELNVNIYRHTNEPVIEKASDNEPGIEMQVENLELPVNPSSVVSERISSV
The test is described as follows: competitive radioligand binding, Serotoninergic 5-HT2C. The following applies: read-out: radio-labelled ligand displacement, Serotoninergic 5-HT2C. Here is the method:
as §1

Histaminergic H2, sequence (P25021 whole entry): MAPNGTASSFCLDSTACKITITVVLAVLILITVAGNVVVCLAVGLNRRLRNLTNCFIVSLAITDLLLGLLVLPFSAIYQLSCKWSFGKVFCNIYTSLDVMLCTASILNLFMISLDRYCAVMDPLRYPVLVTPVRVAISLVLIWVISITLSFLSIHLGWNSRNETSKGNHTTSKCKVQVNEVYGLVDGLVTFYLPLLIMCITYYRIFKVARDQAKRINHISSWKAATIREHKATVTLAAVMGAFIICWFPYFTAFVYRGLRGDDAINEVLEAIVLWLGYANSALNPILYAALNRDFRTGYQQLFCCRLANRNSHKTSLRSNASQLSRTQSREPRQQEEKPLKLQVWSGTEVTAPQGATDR
Dopaminergic D2S, sequence (P14416 1-414 isoform P14416-2): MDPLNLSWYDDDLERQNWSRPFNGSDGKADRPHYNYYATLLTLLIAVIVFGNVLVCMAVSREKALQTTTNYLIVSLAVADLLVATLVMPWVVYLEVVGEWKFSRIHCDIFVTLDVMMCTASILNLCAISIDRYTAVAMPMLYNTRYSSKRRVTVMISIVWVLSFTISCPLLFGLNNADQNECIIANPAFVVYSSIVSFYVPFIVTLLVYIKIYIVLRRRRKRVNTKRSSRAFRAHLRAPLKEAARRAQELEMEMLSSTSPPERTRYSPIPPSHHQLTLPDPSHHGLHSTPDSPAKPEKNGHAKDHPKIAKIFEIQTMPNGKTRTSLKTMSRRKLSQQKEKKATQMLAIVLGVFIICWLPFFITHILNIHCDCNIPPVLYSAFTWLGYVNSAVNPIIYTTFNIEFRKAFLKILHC
Dopaminergic D2L, sequence (P14416 whole entry): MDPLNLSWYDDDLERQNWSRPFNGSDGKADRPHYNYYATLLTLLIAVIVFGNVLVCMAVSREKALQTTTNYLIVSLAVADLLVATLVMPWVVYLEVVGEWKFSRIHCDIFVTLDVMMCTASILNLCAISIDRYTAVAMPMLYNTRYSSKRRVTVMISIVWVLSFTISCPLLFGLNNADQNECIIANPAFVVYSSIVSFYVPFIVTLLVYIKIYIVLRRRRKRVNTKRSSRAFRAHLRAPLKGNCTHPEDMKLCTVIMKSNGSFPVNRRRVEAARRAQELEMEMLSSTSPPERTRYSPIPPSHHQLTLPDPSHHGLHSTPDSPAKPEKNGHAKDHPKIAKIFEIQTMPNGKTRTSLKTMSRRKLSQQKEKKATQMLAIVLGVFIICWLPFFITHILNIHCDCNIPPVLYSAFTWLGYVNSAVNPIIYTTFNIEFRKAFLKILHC

Take `Cc1ccc(CCCn2c3c(c4scc(Cl)c42)CN(C)CC3)cn1` [2.12(5)•HCl, 7-methyl-4-[3-(6-methylpyridin-3-yl)propyl]-3-chloro-5,6,7,8-tetrahydro-4H-thieno[2′,3′:4,5]pyrrolo[3,2-c]pyridine]: in the test on Adrenergic α1A, the radio-labelled ligand displacement, Adrenergic α1A stood at 98%. In addition, the inhibition at 1 µM is 101% on Adrenergic α2A (compound concentration of 1 μM); 87% on Dopaminergic D2L; 89% on Dopaminergic D2S; 71% at Dopaminergic D3; 69% on Dopaminergic D4.2; 99% on Histaminergic H1. Also, the inhibition at 1 µM at Histaminergic H2 is 96%; on Serotoninergic 5-HT1A it was 57%; on Serotoninergic 5-HT2A it was 99%; at Serotoninergic 5-HT2C (compound concentration of 1 μM) it was 99%. The molecule also yielded a radio-labelled ligand displacement, Serotoninergic 5-HT1B in the test on Serotoninergic 5-HT1B of 62%.

With `Cc1cc2c3c(n(Cc4ccccc4)c2s1)CC1CCC3N1C` (stereo not drawn) [3.13(1)•HCl, 9-benzyl-2,10-dimethyl-4,5,6,7,8,9-hexahydro-4,7-epiminocyclohepta[b]thieno[3,2-d]pyrrole], in the test with Adrenergic α1A, the radio-labelled ligand displacement, Adrenergic α1A came out at 61%. The inhibition at 1 µM on Adrenergic α2A is 65%; at Dopaminergic D2L, 37%; on Dopaminergic D2S, 25%; on Dopaminergic D3 it was 21%; on Dopaminergic D4.2 it was 31%; at Histaminergic H1 it was 88%. Besides, the inhibition at 1 µM is 70% on Histaminergic H2, 19% on Serotoninergic 5-HT1A, 95% at Serotoninergic 5-HT2A and 81% at Serotoninergic 5-HT2C. The radio-labelled ligand displacement, Serotoninergic 5-HT1B with Serotoninergic 5-HT1B was determined as 20%.

In the case of `Cc1cc2c(s1)c1c(n2-c2cccc(F)c2)CCN(C)C1` [2.4(3)•HCl, 2,7-dimethyl-4-(3-fluorophenyl)-5,6,7,8-tetrahydro-4H-thieno[2′,3′:4,5]pyrrolo[3,2-c]pyridine], the radio-labelled ligand displacement, Adrenergic α1A in the test on Adrenergic α1A was 17%. For the same molecule, the inhibition at 1 µM on Adrenergic α2A (compound concentration of 1 μM) was determined as 14%; on Dopaminergic D2L it was 4%; at Dopaminergic D2S, 3%; at Dopaminergic D3, 11%; on Dopaminergic D4.2, 3%; on Histaminergic H1, 38%. Further, the inhibition at 1 µM on Histaminergic H2 is 29%; at Serotoninergic 5-HT1A it was 3%; on Serotoninergic 5-HT2A, 41%; on Serotoninergic 5-HT2C (compound concentration of 1 μM) it was 33%. The radio-labelled ligand displacement, Serotoninergic 5-HT1B in the test with Serotoninergic 5-HT1B is 5%.

`Cc1ccc(Cn2c3c(c4sc(Cl)cc42)C(C)N(C)C(C)C3)cn1` (stereo not drawn) [2.5(4)•HCl, 4-(6-methylpyridin-3-ylmethyl)-6,7,8-trimethyl-2-chloro-5,6,7,8-tetrahydro-4H-thieno[2′,3′:4,5]pyrrolo[3,2-c]pyridine]: in the test on Adrenergic α1A, the radio-labelled ligand displacement, Adrenergic α1A came to 51%. The inhibition at 1 µM at Adrenergic α2A (compound concentration of 1 μM) is 42%; at Dopaminergic D2L, 11%; on Dopaminergic D2S, 17%; on Dopaminergic D3 it was 15%; at Dopaminergic D4.2 it was -1%; on Histaminergic H1, 70%. The inhibition at 1 µM on Histaminergic H2 was 83%; at Serotoninergic 5-HT1A, 35%; on Serotoninergic 5-HT2A it was 91%; at Serotoninergic 5-HT2C (compound concentration of 1 μM) it was 91%. In the test on Serotoninergic 5-HT1B, this molecule displayed a radio-labelled ligand displacement, Serotoninergic 5-HT1B of 28%.

On to `Cc1cc2c3c(n(Cc4ccccc4)c2s1)CCN(C)C3.Cl` [3.5(1)•HCl, 8-Benzyl-2,5-dimethyl-5,6,7,8-tetrahydro-4H-thieno[3′,2′:4,5]pyrrolo[3,2-c]pyridine hydrochloride], for which the radio-labelled ligand displacement, Adrenergic α1A in the test with Adrenergic α1A turned out to be 77%. The inhibition at 1 µM was 64% on Adrenergic α2A; 14% at Dopaminergic D2L; 23% on Dopaminergic D2S; 19% on Dopaminergic D3; -5% on Dopaminergic D4.2; 96% at Histaminergic H1. For the same molecule, the inhibition at 1 µM is 91% at Histaminergic H2, 42% at Serotoninergic 5-HT1A, 100% at Serotoninergic 5-HT2A and 97% at Serotoninergic 5-HT2C. For the same molecule, the radio-labelled ligand displacement, Serotoninergic 5-HT1B in the test with Serotoninergic 5-HT1B turned out to be 10%.

In the test with Adrenergic α1A, `CC1Cc2c(c3sc(Cl)cc3n2C#Cc2cccc(F)c2)C(C)N1C` (stereo not drawn) [2.10(3)•HCl, 6,7,8-trimethyl-4-(3-fluorophenyl)ethynyl-2-chloro-5,6,7,8-tetrahydro-4H-thieno[2′,3′:4,5]pyrrolo[3,2-c]pyridine] had a radio-labelled ligand displacement, Adrenergic α1A of 21%. Further, the inhibition at 1 µM on Adrenergic α2A (compound concentration of 1 μM) turned out to be 17%; at Dopaminergic D2L, 20%; on Dopaminergic D2S, 31%; on Dopaminergic D3 it was 23%; at Dopaminergic D4.2, 4%; at Histaminergic H1, 65%. In addition, the inhibition at 1 µM on Histaminergic H2 turned out to be 33%; at Serotoninergic 5-HT1A, 6%; at Serotoninergic 5-HT2A, 43%; on Serotoninergic 5-HT2C (compound concentration of 1 μM), 31%. This molecule also registered a radio-labelled ligand displacement, Serotoninergic 5-HT1B in the test on Serotoninergic 5-HT1B of 9%.

In turn, `Cc1cc2c(s1)c1c(n2Cc2ccccc2)CCN(C)C1.Cl` [2.5(1)•HCl, 4-Benzyl-2,7-dimethyl-5,6,7,8-tetrahydro-4H-thieno[2′,3′:4,5]pyrrolo[3,2-c]pyridine hydrochloride] returned a radio-labelled ligand displacement, Adrenergic α1A in the test with Adrenergic α1A of 42%. The inhibition at 1 µM at Adrenergic α2A is 34%; at Dopaminergic D2L, 8%; on Dopaminergic D2S, -6%; at Dopaminergic D3, 16%; at Dopaminergic D4.2, -3%; at Histaminergic H1 it was 96%. Also, the inhibition at 1 µM is 44% on Histaminergic H2, 3% on Serotoninergic 5-HT1A, 93% on Serotoninergic 5-HT2A and 84% on Serotoninergic 5-HT2C. This molecule returned a radio-labelled ligand displacement, Serotoninergic 5-HT1B in the test on Serotoninergic 5-HT1B of 6%.

The values are drawn from patent US20130267551A1, “SUBSTITUTED HYDROGENATED THIENO-PYRROLO[3,2-C]PYRIDINE, LIGANDS, A PHARMACEUTICAL COMPOSITION AND A METHOD FOR USING THE ABOVE” (ALLA CHEM, LLC, priority 2010, published 2013).
